Each structure is given as a SMILES string.

T1 sequence (P11766 whole entry): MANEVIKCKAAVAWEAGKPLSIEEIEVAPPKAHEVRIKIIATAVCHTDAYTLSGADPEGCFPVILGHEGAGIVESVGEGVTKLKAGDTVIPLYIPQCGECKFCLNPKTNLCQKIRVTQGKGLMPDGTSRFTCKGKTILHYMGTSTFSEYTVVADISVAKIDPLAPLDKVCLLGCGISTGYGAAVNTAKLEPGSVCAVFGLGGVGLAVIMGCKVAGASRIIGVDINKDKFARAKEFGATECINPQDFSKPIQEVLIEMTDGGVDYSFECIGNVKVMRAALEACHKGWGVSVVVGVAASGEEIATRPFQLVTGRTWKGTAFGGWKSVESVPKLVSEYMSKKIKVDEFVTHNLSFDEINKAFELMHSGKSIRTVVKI

One data set addresses T1, GSNOR (Homo sapiens, UniProt P11766).
T1 construct: made in house; host or cells: E. coli (arabinose-induced)
Kind of data set: GSNOR assay (inhibition of GSNOR activity, NADH absorbance at 340 nm). The class given is biochemical. The conditions noted are these: printed as 'about <'; 0.240 mM GSNO, 0.300 mM NADH, pH 7.4, 25° C. Here is the method:
GSNOR expression and purification is described in Biochemistry 2000, 39, 10720-10729.
GSNOR Fermentation: Pre-cultures were grown from stabs of a GSNOR glycerol stock in 2XYT media containing 100 ug/ml ampicillin after an overnight incubation at 37° C. Cells were then added to fresh 2XYT (4 L) containing ampicillin and grown to an OD (A600) of 0.6-0.9 at 37° C. before induction. GSNOR expression was induced with 0.1% arabinose in an overnight incubation at 20° C.
GSNOR Purification: E. coli cell paste was lysed by nitrogen cavitation and the clarified lysate purified by Ni affinity chromatography on an AKTA FPLC (Amersham Pharmacia). The column was eluted in 20 mM Tris pH 8.0/250 mM NaCl with a 0-500 mM imidazole gradient. Eluted GSNOR fractions containing the Smt-GSNOR fusion were digested overnight with Ulp-1 at 4° C. to remove the affinity tag then re-run on the Ni column under the same conditions. GSNOR was recovered in the flowthrough fraction and for crystallography is further purified by Q-Sepharose and Heparin flowthrough chromatography in 20 mM Tris pH 8.0, 1 mM DTT, 10 uM ZnSO4.
GSNOR Assay: GSNO and enzyme/NADH Solutions are made up fresh each day. The solutions are filtered and allowed to warm to room temperature. GSNO solution: 100 mM NaPO4 (pH 7.4), 0.480 mM GSNO. 396 μL of GSNO Solution is added to a cuvette followed by 8 μL of test compound in DMSO (or DMSO only for full reaction control) and mixed with the pipette tip. Compounds to be tested are made up at a stock concentration of 10 mM in 100% DMSO. 2 fold serial dilutions are done in 100% DMSO. 8 μL of each dilution are added to an assay so that the final concentration of DMSO in the assay is 1%. The concentrations of compounds tested range from 100 to 0.003 μM. Enzyme/NADH solution: 100 mM NaPO4 (pH 7.4), 0.600 mM NADH, 1.0 μg/mL GSNO Reductase. 396 μL of the Enzyme/NADH solution is added to the cuvette to start the reaction. The cuvette is placed in the Cary 3E UV/Visible Spectrophotometer and the change in 340 nm absorbance/min at 25° C. is recorded for 3 minutes. The assays are done in triplicate for each compound concentration. IC50's for each compound are calculated using the standard curve analysis in the Enzyme Kinetics Module of SigmaPlot.
Final assay conditions: 100 mM NaPO4, pH 7.4, 0.240 mM GSNO, 0.300 mM NADH, 0.5 μg/mL GSNO Reductase, and 1% DMSO. Final volume: 800 μL/cuvette.
As usually defined, the IC50 is the point on the concentration scale where inhibition reaches its midpoint. Compound `O=C(O)[C@H]1CC[C@H](c2ccc3cc(O)ccc3n2)CC1` [Example 6, (1r,4r)-4-(6-hydroxyquinolin-2-yl)cyclohexanecarboxylic acid] showed an IC50 of less than 500 nM.

`O=C(O)c1ccc(-c2ncc3cc(O)ccc3n2)cc1` [Example 45, 4-(6-hydroxyquinazolin-2-yl)benzoic acid] gave an IC50 of less than 100 nM. On the same count and under the same terms, in the case of `O=C(O)[C@H]1CC[C@H](c2nc3ccc(O)cc3cc2C(F)(F)F)CC1` [Example 43, (1r,4r)-4-(6-hydroxy-3-(trifluoromethyl)quinolin-2-yl)cyclohexanecarboxylic acid] it was less than 100 nM; in that of `O=C(O)c1ccc(-c2cc(F)c3cc(O)ccc3n2)c(Cl)c1` [Example 37, 3-chloro-4-(4-fluoro-6-hydroxyquinolin-2-yl)benzoic acid], less than 100 nM; in that of `O=C(O)c1ccc(-c2nc3ccc(O)cc3cc2C(F)(F)F)cc1` [Example 31, 4-(6-hydroxy-3-(trifluoromethyl)quinolin-2-yl)benzoic acid], less than 100 nM. `O=C(O)c1ccc(-c2cc3ccc(O)cc3cn2)c(F)c1` [Example 65, 3-fluoro-4-(7-hydroxyisoquinolin-3-yl)benzoic acid] registered an IC50 of less than 100 nM. Still for that read-out and setting: in the case of `O=C(O)c1ccc(-c2ccc3cc(O)ccc3n2)c(C(F)(F)F)c1` [Example 30, 4-(6-hydroxyquinolin-2-yl)-3-(trifluoromethyl)benzoic acid] it was less than 100 nM.

Tested on in the next data set: not listed separately
Kind of data set: Mouse pharmacokinetic (PK) study. The class given is in vivo, male BALB/c mice. The following applies: male, BALB/c, plasma, po, 10 mg/kg, IV 2 mg/kg, read-out: oral bioavailability (% F). From the text:
The mouse was used to determine the pharmacokinetics of compounds of the invention. This species is widely used to assess the bioavailability of compounds by administering both oral (PO) and intravenous (IV) test articles. Efficacy of the compounds of the invention was compared by assessing plasma exposure in male BALB/c mice either via IV or PO administration at the times of peak activity.
Compounds of the invention were reconstituted in a phosphate buffered saline (PBS)/10% Solutol (HS 15) clear solution resulting in a concentration of 0.2 mg/mL and administered to mice (2 mg/kg) as a single IV dose. Animals were dosed via the lateral tail vein. Blood samples were collected at designated time points (0.083, 0.25, 0.5, 1, 2, 4, 8, 16, 24 hours) by cardiac puncture under isoflurane anesthesia (up to 1 mL blood per animal). The blood was collected into tubes containing Li-Heparin. The blood samples were kept on ice until centrifugation within approximately 30 minutes of collection. The plasma was transferred into labeled polypropylene tubes and frozen at −70° C. until analyzed by LC/MS/MS.
The compounds of the invention were reconstituted in 40% Propylene Glycol/40% Propylene Carbonate/20% of a 5% Sucrose clear solution resulting in a concentration of 2 mg/mL and administered to mice (10 mg/kg) as a single oral dose via gavage. Blood samples were collected at 0.25, 0.5, 1, 2, 4, 8, 12, 16, 20 and 24 hours post dose by cardiac puncture under isoflurane anesthesia. The blood was collected in tubes containing Li-Heparin. […] The plasma was transferred into labeled polypropylene tubes and frozen at −70° C. until analyzed by LC/MS/MS.
Plasma samples at each timepoint were analyzed using a LC-MS/MS with a lower limit of quantification (LLOQ) of 1 ng/mL. Plasma was analyzed to determine the amount of the compound of the invention in each sample and regression curves generated for each compounds of the invention in the relevant matrixes. […]
In addition to the above PK parameters, bioavailability (% F) was calculated.
What is called bioavailability is the share of a dose that reaches the circulation, judged against a reference dose that is usually intravenous. `O=C(O)c1ccc(-c2nc3ccc(O)cc3cc2Cl)c(F)c1` [Example 28, 4-(3-chloro-6-hydroxyquinolin-2-yl)-3-fluorobenzoic acid]: the bioavailability was more than 9%. The same measure, in the same setting: in the case of `O=C(O)c1ccc(-c2nc3ccc(O)cc3cc2Cl)cc1` [Example 19, 4-(3-chloro-6-hydroxyquinolin-2-yl)benzoic acid] it was more than 9%.

The next data set relates to acute dextran sodium sulfate (DSS)-induced IBD. The data set can be described thus: Acute prophylactic model of DSS-induced IBD in mice. The conditions noted are these: oral 10 mg/kg/day for 10 consecutive days, prophylactic. The class given is in vivo, male C57Bl/6 mice. From the text:
Acute and chronic models of dextran sodium sulfate (DSS)-induced IBD in mice were used to explore efficacy of GSNORi against this disease. Acute and chronic DSS-induced IBD are widely used and well characterized models that induce pathological changes in the colon similar to those observed in the human disease. In these models and in human disease, epithelial cells within the crypts of the colon are disrupted, leading to dysfunction of the epithelial barrier and the ensuing tissue inflammation, edema, and ulceration. GSNORi therapy may benefit IBD by restoring s-nitrosoglutathione (GSNO) levels, and thus prevent or reverse the epithelial barrier dysfunction. Experimental IBD was induced by administration of DSS in the drinking water of male C57Bl/6 mice (N=8 to 10 mice per group) for 6 consecutive days. GSNORi was dosed orally at doses of 0.1 to 10 mg/kg/day for 10 days starting two days prior to and continuing two days post DSS exposure. Two days post DSS exposure, the effect of GSNORi was assessed in a blinded fashion via endoscopy and histopathology using a five point scale ranging from a score=0 (normal tissue) through a score=4 (ulcerative tissue damage and marked pathological changes). Levels of circulating cytokines involved in inflammatory pathways were also assessed. The effect of GSNORi was compared to vehicle treated controls. The corticosteroid, prednisolone, was used as the positive control in this study and was administered daily at 3 mg/kg/day via oral dosing. Naïve mice (N=5) were also assessed as a normal tissue control.
Consider `O=C(O)c1ccc(-c2nc3ccc(O)cc3cc2Cl)cc1` [Example 19, 4-(3-chloro-6-hydroxyquinolin-2-yl)benzoic acid], for which the “decrease of percent of mice with severe colon injury scores via endoscopy” value is 31 % of vehicle control.

In the next data set the test system is cigarette smoke-induced COPD (subchronic 11 day). Kind of data set: Subchronic (11 day) cigarette smoke exposure COPD model. Format: in vivo, female C57Bl/6 mice. The conditions noted are these: subchronic 11 day model; roflumilast 5 mg/kg/day. Here is the method:
The efficacy of GSNOR inhibitors was assessed in a mouse model of chronic obstructive pulmonary disease (COPD) induced by short duration (4 days or 11 days) of exposure to cigarette smoke. Infiltration of inflammatory cells into the bronchoalveolar lavage fluid (BALF) and BALF levels of chemokines involved in inflammation and tissue turnover/repair were measured to assess the influences of GSNOR inhibitors on some of the early events associated with the initiation and progression of COPD.
Efficacy of GSNOR inhibitors against COPD was explored using acute (4 day) and subchronic (11 day) models of cigarette smoke-induced COPD in mice. […] In animal models, changes in lung pathology are only evident after extended (several months) duration of exposure to cigarette smoke, thus making chronic models prohibitive as effective screening tools. More recently, models exploring inflammatory responses after short duration (2 weeks or less) of smoke exposure in mice have been utilized as tools for screening efficacy and mechanisms of action of novel therapeutics against COPD. The key roles of inflammation in the initiation and progression of COPD, make these short duration models relevant for initial tests of efficacy of novel therapeutics.
Subchronic (11 Day) Smoke Exposure Model: Female C57Bl/6 mice (N=10 per group) were exposed to cigarette smoke generated from Marlboro 100 cigarettes without filters. Exposure times were 25 min. on study day 1, 35 min. on study day 2, and 45 min. on study days 3 to 11. GSNOR inhibitors were administered one hour prior to smoke exposure on each day. GSNOR inhibitors were dosed orally at 1 to 10 mg/kg/day for 11 days. The effects of GSNOR inhibitors were assessed by quantitating the number of total cells, and leukocytes differentials in the BALF via light microscopy at 24 h after the last exposure. The effect of GSNOR inhibitors were compared to vehicle treated controls and expressed as percent inhibition of the cigarette smoke induced increases in BALF cell numbers. Roflumilast was used as the positive control for the study and was dosed at 5 mg/kg/day. A group of naïve mice (N=10) was exposed to air and dosed with vehicle as a negative control for the study.
For the compound `Cc1cc(C(=O)O)ccc1-c1ccc2cc(O)ccc2n1` [Example 27, 4-(6-hydroxyquinolin-2-yl)-3-methylbenzoic acid], the “effects compared to roflumilast (positive control)” value is listed as “comparable to those of roflumilast”. Still for that read-out and setting: in the case of `O=C(O)c1ccc(-c2ccc3cc(O)ccc3n2)c(F)c1` [Example 13, 3-fluoro-4-(6-hydroxyquinolin-2-yl)benzoic acid] it was “comparable to those of roflumilast”.

(Values after patent publication US9221810B2, “Substituted bicyclic aromatic compounds as S-nitrosoglutathione reductase inhibitors” (Nivalis Therapeutics, Inc., priority 2010, dated 2015).)
